In ChEMBL document CHEMBL4177658, “Benzo[c][1,2,5]thiadiazole derivatives: A new class of potent Src homology-2 domain containing protein tyrosine phosphatase-2 (SHP2) inhibitors” (Bioorg Med Chem Lett, 2017):
pIC50: −log10 of the molar value.

Experiments:
[1] = target: T1, Tyrosine-protein phosphatase non-receptor type 1 (Homo sapiens) (UniProt P18031); experiment: Inhibition of GST-tagged PTP1B (unknown origin) at 20 ug/ml using pNPP as substrate measured for 3 mins by colorimetric assay
T1 sequence (whole entry): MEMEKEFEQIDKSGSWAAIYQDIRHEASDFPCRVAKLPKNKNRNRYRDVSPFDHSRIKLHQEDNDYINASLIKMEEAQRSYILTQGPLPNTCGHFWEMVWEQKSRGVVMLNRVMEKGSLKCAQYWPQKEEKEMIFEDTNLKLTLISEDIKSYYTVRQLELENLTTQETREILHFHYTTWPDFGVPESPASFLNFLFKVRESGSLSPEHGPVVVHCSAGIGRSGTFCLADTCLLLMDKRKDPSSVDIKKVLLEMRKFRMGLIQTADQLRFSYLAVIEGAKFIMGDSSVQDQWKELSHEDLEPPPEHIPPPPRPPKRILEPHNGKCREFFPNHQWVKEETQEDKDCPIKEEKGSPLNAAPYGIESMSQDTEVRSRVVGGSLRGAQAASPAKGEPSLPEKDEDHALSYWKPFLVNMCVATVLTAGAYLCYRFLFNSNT

[2] = target: T2, Tyrosine-protein phosphatase non-receptor type 11 (Homo sapiens) (UniProt Q06124); experiment: Inhibition of SHP2 (unknown origin) at 20 ug/ml using 3-o-methylfluorescein phosphate as substrate by fluorescence assay
T2 sequence (whole entry): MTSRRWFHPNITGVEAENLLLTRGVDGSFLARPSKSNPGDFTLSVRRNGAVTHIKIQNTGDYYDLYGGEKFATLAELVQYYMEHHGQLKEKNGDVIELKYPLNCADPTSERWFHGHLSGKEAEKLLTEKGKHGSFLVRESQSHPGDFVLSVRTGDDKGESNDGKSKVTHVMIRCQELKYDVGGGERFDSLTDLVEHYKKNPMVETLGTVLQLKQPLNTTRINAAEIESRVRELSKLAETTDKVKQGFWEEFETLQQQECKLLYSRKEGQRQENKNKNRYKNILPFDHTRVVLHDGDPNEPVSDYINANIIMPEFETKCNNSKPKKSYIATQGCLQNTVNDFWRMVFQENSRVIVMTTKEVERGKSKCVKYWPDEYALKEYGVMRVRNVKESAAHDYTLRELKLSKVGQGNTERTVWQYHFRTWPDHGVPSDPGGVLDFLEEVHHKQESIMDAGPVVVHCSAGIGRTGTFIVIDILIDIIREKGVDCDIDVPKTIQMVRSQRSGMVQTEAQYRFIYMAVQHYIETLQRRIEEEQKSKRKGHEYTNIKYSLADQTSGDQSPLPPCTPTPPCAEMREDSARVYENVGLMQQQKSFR

[3] = target: T3, Tyrosine-protein phosphatase non-receptor type 11 (Homo sapiens, UniProt Q06124); experiment: Inhibition of SHP2 (unknown origin) using 3-o-methylfluorescein phosphate as substrate by fluorescence assay
T3 sequence (Q06124 whole entry): T2 sequence (whole entry)

[4] = target: T4, Tyrosine-protein phosphatase non-receptor type 1 (Homo sapiens, UniProt P18031); experiment: Inhibition of GST-tagged PTP1B (unknown origin) using pNPP as substrate measured for 3 mins by colorimetric assay
T4 sequence (P18031 whole entry): T1 sequence (whole entry)

Homo sapiens [5] = organism: Homo sapiens; experiment: Selectivity index, ratio of IC50 for GST-tagged PTP1B (unknown origin) to iC50 for SHP2 (unknown origin)
[6] = target: T5, Tyrosine-protein phosphatase non-receptor type 2 (Homo sapiens) (UniProt P17706); experiment: Inhibition of GST-tagged TCPTP (unknown origin) at 20 ug/ml using pNPP as substrate measured for 3 mins by colorimetric assay
T5 sequence (whole entry): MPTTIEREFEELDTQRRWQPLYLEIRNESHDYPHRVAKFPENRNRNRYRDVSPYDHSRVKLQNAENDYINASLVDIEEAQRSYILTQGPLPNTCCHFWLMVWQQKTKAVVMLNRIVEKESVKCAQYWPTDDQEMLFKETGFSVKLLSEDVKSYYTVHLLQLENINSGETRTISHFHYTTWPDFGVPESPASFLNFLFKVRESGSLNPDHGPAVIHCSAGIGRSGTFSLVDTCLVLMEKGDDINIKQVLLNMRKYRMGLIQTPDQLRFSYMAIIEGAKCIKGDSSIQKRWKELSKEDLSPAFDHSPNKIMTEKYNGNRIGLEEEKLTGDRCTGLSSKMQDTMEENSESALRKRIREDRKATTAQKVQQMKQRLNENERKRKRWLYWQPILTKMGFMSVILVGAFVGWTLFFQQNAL

Homo sapiens [7] = organism: Homo sapiens; experiment: Selectivity index, ratio of IC50 for SHP1 (unknown origin) to IC50 for SHP2 (unknown origin)
[8] = target: Tyrosine-protein phosphatase non-receptor type 6 (Homo sapiens, UniProt P29350); experiment: Inhibition of SHP1 (unknown origin) using 3-o-methylfluorescein phosphate as substrate by fluorescence assay
Tyrosine-protein phosphatase non-receptor type 6, sequence (P29350 whole entry): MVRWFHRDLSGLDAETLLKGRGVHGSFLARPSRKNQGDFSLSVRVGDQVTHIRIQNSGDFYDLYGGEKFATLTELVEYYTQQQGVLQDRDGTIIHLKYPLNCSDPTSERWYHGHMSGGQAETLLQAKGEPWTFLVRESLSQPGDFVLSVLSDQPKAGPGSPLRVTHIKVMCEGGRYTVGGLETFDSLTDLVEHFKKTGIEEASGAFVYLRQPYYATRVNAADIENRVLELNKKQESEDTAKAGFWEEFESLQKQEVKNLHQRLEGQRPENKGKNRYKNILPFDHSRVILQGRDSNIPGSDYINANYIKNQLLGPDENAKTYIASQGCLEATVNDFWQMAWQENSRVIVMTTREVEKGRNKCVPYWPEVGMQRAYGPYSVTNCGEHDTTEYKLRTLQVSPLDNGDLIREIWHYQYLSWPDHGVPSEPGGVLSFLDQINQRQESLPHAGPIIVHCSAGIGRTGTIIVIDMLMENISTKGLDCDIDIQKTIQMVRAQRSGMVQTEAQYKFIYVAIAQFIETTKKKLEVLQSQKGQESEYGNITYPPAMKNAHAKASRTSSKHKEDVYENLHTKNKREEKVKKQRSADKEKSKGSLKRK

SMILES	inhibition [1] [%]	inhibition [2] [%]	pIC50 [3]	further results
c1coc(CNc2ccc3nsnc3c2)c1	< 50	< 50	–	–
Nc1cc2nsnc2cc1Br	< 50	–	4.37	–
c1ccc(CNc2ccc3nsnc3c2)nc1	< 50	–	4.51	–
C[Si](C)(C)C#Cc1cc2nsnc2cc1N	< 50	< 50	–	–
Nc1cc2nsnc2cc1-c1ccccc1	< 50	< 50	–	–
Nc1ccc2nsnc2c1	< 50	–	4.41	–
CCCNc1ccc2nsnc2c1	< 50	< 50	–	–
c1csc(CNc2ccc3nsnc3c2)c1	–	–	4.62	pIC50 [4]: 4.32
c1cc2nsnc2cc1NCC1CCCCC1	< 50	< 50	–	–
Nc1cc2nsnc2cc1C#Cc1ccccc1	–	–	4.85	pIC50 [4]: 4.47
Nc1cc2nsnc2cc1C#CCCCCCl	–	–	5.24	pIC50 [4]: 4.42
Nc1cc2nsnc2cc1C#CC1CC1	< 50	–	4.81	–
c1ccc(CNc2ccc3nsnc3c2)cc1	–	–	4.58	pIC50 [4]: 4.38

More lines, main results first:

inhibition [1] [%]	inhibition [2] [%]	pIC50 [3]	SMILES	further results
< 50	< 50	–	CC(C)(C)C#Cc1cc2nsnc2cc1[N+](=O)[O-]	–
< 50	< 50	–	O=[N+]([O-])c1cc2nsnc2cc1C#Cc1ccccc1	–
< 50	–	4.52	C#Cc1cc2nsnc2cc1[N+](=O)[O-]	–
< 50	< 50	–	C[Si](C)(C)C#Cc1cc2nsnc2cc1[N+](=O)[O-]	–
< 50	< 50	–	O=[N+]([O-])c1cc2nsnc2cc1C#CC1CC1	–
< 50	< 50	–	O=[N+]([O-])c1cc2nsnc2cc1-c1ccccc1	–
–	–	5.68	C#Cc1cc2nsnc2cc1N	Ratio IC50 (Homo sapiens [5]): 25; inhibition [6]: < 50%; pIC50 [4]: 4.30; Ratio IC50 (Homo sapiens [7]): 2.02; pIC50 [8]: 5.37
< 50	–	4.59	CC(C)(C)C#Cc1cc2nsnc2cc1N	–
< 50	< 50	–	O=[N+]([O-])c1cc2nsnc2cc1C#CCCCCCl	–
